Measured values taken from patent US20040072230A1, “Human SORBS1 genetic variations contribute to insulin resistance, obesity, type 2 diabetes, and hypertension” (priority 2002, published 2004).

System: SH3P12/CAP/ponsin mRNA
Assay: SH3P12/CAP/ponsin mRNA level in differentiated 3T3-L1 adipocytes after BRL49653
Format: cell-based, murine
Conditions: BRL49653 4.5 μM for 16 hours added to well-differentiated 3T3-L1 adipocytes on day 6; 8.25 fold in the absence of BRL49653

CN(CCOc1ccc(CC2SC(=O)NC2=O)cc1)c1ccccn1 (stereo not shown) [BRL49653, rosiglitazone]
level of SH3P12/CAP/ponsin mRNA, fold higher than pre-induction levels: 17.6 fold
